Source: patent US9034921B2, “Diphenylmethane derivatives as SGLT2 inhibitors” (GREEN CROSS CORPORATION, priority 2011, dated 2015)

What follows are molecules tested against human SGLT2 (Homo sapiens (Human), UniProt P31639) (assay: Inhibitory effects on human SGLT2 activities (14C-AMG uptake, sodium-dependent glucose transport assay)). Conditions: CHO cells stably expressing hSGLT2, 37° C., 2 h, single determinations.
Type: cell-based
Procedure, shortened: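 CHO cells stably expressing hSGLT2 were preincubated 10 min at 37 °C in choline (Na+-free) buffer, then exposed 2 h at 37 °C to compound in Na+ uptake buffer with 8 μM 14C-AMG and 1 mM unlabeled AMG. Radioactivity was scintillation counted; IC50 came from nonlinear regression.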

human SGLT2, sequence (P31639 whole entry): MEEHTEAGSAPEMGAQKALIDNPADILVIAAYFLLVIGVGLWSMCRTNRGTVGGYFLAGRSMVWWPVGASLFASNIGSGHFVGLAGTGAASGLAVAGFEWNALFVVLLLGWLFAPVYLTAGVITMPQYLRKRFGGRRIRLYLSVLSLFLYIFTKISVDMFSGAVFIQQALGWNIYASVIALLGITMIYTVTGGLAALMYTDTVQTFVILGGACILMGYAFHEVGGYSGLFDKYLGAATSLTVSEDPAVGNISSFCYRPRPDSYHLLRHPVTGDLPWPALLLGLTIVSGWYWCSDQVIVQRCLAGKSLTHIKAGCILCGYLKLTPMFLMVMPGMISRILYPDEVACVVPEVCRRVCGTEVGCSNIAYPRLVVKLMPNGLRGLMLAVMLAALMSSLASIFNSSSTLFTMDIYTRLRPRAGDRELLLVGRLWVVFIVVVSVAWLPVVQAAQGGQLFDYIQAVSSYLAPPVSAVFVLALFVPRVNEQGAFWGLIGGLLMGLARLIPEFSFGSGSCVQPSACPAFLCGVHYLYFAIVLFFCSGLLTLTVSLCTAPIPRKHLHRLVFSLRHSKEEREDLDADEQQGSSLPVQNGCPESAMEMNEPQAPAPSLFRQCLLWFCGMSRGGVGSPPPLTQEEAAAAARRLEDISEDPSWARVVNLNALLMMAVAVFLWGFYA

SMILES | IC50
OC[C@H]1O[C@@H](c2cc(Cc3ccc(C4CC4)cc3)c(Cl)c3c2CCCO3)[C@H](O)[C@@H](O)[C@@H]1O [Example E155, (2S,3R,4R,5S,6R)-2-(8-Chloro-7-(4-cyclopropylbenzyl)chroman-5-yl)-6-(hydroxymethyl)tetrahydro-2H-pyran-3,4,5-triol] | 0.881 nM
COc1ccc(Cc2cc([C@@H]3O[C@H](CO)[C@@H](O)[C@H](O)[C@H]3O)c3c(c2Cl)OCCC3)cc1 [Example E156, (2S,3R,4R,5S,6R)-2-(8-Chloro-7-(4-methoxybenzyl)chroman-5-yl)-6-(hydroxymethyl)tetrahydro-2H-pyran-3,4,5-triol] | 2.09 nM
CCOc1ccc(Cc2cc([C@@H]3O[C@H](CO)[C@@H](O)[C@H](O)[C@H]3O)c3c(c2Cl)OCCC3)cc1 [Example E157, (2S,3R,4R,5S,6R)-2-(8-Chloro-7-(4-ethoxybenzyl)chroman-5-yl)-6-(hydroxymethyl)tetrahydro-2H-pyran-3,4,5-triol] | 1.28 nM
OC[C@H]1O[C@@H](c2cc(Cc3ccc(C4CC4)cc3)c(Cl)c3c2OCO3)[C@H](O)[C@@H](O)[C@@H]1O [Example E158, (2S,3R,4R,5S,6R)-2-(7-Chloro-6-(4-cyclopropylbenzyl)benzo[d][1,3]dioxol-4-yl)-6-(hydroxymethyl)tetrahydro-2H-pyran-3,4,5-triol] | 0.366 nM
CC(C)c1ccc(Cc2cc([C@@H]3O[C@H](CO)[C@@H](O)[C@H](O)[C@H]3O)c3c(c2Cl)OCO3)cc1 [Example E159, (2S,3R,4R,5S,6R)-2-(7-Chloro-6-(4-isopropylbenzyl)benzo[d][1,3]dioxol-4-yl)-6-(hydroxymethyl)tetrahydro-2H-pyran-3,4,5-triol] | 0.872 nM
COc1ccc(Cc2cc([C@@H]3O[C@H](CO)[C@@H](O)[C@H](O)[C@H]3O)c3c(c2Cl)OCO3)cc1 [Example E161, (2S,3R,4R,5S,6R)-2-(7-Chloro-6-(4-methoxybenzyl)benzo[d][1,3]dioxol-4-yl)-6-(hydroxymethyl)tetrahydro-2H-pyran-3,4,5-triol] | 1.15 nM
CCc1ccc(Cc2cc([C@@H]3O[C@H](CO)[C@@H](O)[C@H](O)[C@H]3O)c3c(c2Cl)OCO3)cc1 [Example E162, (2S,3R,4R,5S,6R)-2-(7-Chloro-6-(4-ethylbenzyl)benzo[d][1,3]dioxol-4-yl)-6-(hydroxymethyl)tetrahydro-2H-pyran-3,4,5-triol] | 0.404 nM
OC[C@H]1O[C@@H](c2cc(Cc3ccc(C4CC4)cc3)c(Cl)c3c2OCCO3)[C@H](O)[C@@H](O)[C@@H]1O [Example E163, (2S,3R,4R,5S,6R)-2-(8-Chloro-7-(4-cyclopropylbenzyl)-2,3-dihydrobenzo[b][1,4]dioxin-5-yl)-6-(hydroxymethyl)tetrahydro-2H-pyran-3,4,5-triol] | 0.651 nM
CCOc1ccc(Cc2cc([C@@H]3O[C@H](CO)[C@@H](O)[C@H](O)[C@H]3O)c3c(c2Cl)OCCCO3)cc1 [Example E164, (2S,3R,4R,5S,6R)-2-(9-Chloro-8-(4-ethoxybenzyl)-3,4-dihydro-2H-benzo[b][1,4]dioxepin-6-yl)-6-(hydroxymethyl)tetrahydro-2H-pyran-3,4,5-triol] | 1.28 nM
CCc1ccc(Cc2cc([C@@H]3O[C@H](CO)[C@@H](O)[C@H](O)[C@H]3O)c3c(c2Cl)OCCCO3)cc1 [Example E165, (2S,3R,4R,5S,6R)-2-(9-Chloro-8-(4-ethylbenzyl)-3,4-dihydro-2H-benzo[b][1,4]dioxepin-6-yl)-6-(hydroxymethyl)tetrahydro-2H-pyran-3,4,5-triol] | 1.08 nM
OC[C@H]1O[C@@H](c2cc(Cc3ccccc3)c(Cl)c3c2CCO3)[C@H](O)[C@@H](O)[C@@H]1O [Example E166, (2S,3R,4R,5S,6R)-2-(6-Benzyl-7-chloro-2,3-dihydrobenzofuran-4-yl)-6-(hydroxymethyl)tetrahydro-2H-pyran-3,4,5-triol] | 4.22 nM
CC(=O)c1ccc(Cc2cc([C@@H]3O[C@H](CO)[C@@H](O)[C@H](O)[C@H]3O)c3c(c2Cl)OCC3)cc1 [Example E168, 1-(4-((7-Chloro-4-((2S,3R,4R,5S,6R)-3,4,5-trihydroxy-6-(hydroxymethyl)tetrahydro-2H-pyran-2-yl)-2,3-dihydrobenzofuran-6-yl)methyl)phenyl)ethanone] | 0.96 nM
CC(O)c1ccc(Cc2cc([C@@H]3O[C@H](CO)[C@@H](O)[C@H](O)[C@H]3O)c3c(c2Cl)OCC3)cc1 (stereo partly drawn) [Example E169, (2S,3R,4R,5S,6R)-2-(7-Chloro-6-(4-(1-hydroxyethyl)benzyl)-2,3-dihydrobenzofuran-4-yl)-6-(hydroxymethyl)tetrahydro-2H-pyran-3,4,5-triol] | 2.12 nM
CC(F)c1ccc(Cc2cc([C@@H]3O[C@H](CO)[C@@H](O)[C@H](O)[C@H]3O)c3c(c2Cl)OCC3)cc1 (stereo partly drawn) [Example E170, (2S,3R,4R,5S,6R)-2-(7-Chloro-6-(4-(1-fluoroethyl)benzyl)-2,3-dihydrobenzofuran-4-yl)-6-(hydroxymethyl)tetrahydro-2H-pyran-3,4,5-triol] | 1.46 nM
C=Cc1ccc(Cc2cc([C@@H]3O[C@H](CO)[C@@H](O)[C@H](O)[C@H]3O)c3c(c2Cl)OCC3)cc1 [Example E171, (2S,3R,4R,5S,6R)-2-(7-Chloro-6-(4-vinylbenzyl)-2,3-dihydrobenzofuran-4-yl)-6-(hydroxymethyl)tetrahydro-2H-pyran-3,4,5-triol] | 0.366 nM
OC[C@H]1O[C@@H](c2cc(Cc3ccc(C4CC4)cc3)c(Cl)c3c2CCO3)[C@H](O)[C@@H](O)[C@@H]1O [Example E172, (2S,3R,4R,5S,6R)-2-(7-Chloro-6-(4-cyclopropylbenzyl)-2,3-dihydrobenzofuran-4-yl)-6-(hydroxymethyl)tetrahydro-2H-pyran-3,4,5-triol] | 0.463 nM
OC[C@H]1O[C@@H](c2cc(Cc3ccc(C4CC4)cc3)c(Cl)c3ccoc23)[C@H](O)[C@@H](O)[C@@H]1O [Example E173, (2S,3R,4R,5S,6R)-2-(4-Chloro-5-(4-cyclopropylbenzyl)benzofuran-7-yl)-6-(hydroxymethyl)tetrahydro-2H-pyran-3,4,5-triol] | 18.1 nM
CCCc1ccc(Cc2cc([C@@H]3O[C@H](CO)[C@@H](O)[C@H](O)[C@H]3O)c3occc3c2Cl)cc1 [Example E174, (2S,3R,4R,5S,6R)-2-(4-Chloro-5-(4-propylbenzyl)benzofuran-7-yl)-6-(hydroxymethyl)tetrahydro-2H-pyran-3,4,5-triol] | 574 nM
CC(C)(O)c1ccc(Cc2cc([C@@H]3O[C@H](CO)[C@@H](O)[C@H](O)[C@H]3O)c3c(c2Cl)OCC3)cc1 [Example E175, (2S,3R,4R,5S,6R)-2-(7-Chloro-6-(4-(2-hydroxypropan-2-yl)benzyl)-2,3-dihydrobenzofuran-4-yl)-6-(hydroxymethyl)tetrahydro-2H-pyran-3,4,5-triol] | 2.03 nM
OC[C@H]1O[C@@H](c2cc(Cc3ccc(C(F)F)cc3)c(Cl)c3c2CCO3)[C@H](O)[C@@H](O)[C@@H]1O [Example E176, (2S,3R,4R,5S,6R)-2-(7-Chloro-6-(4-(difluoromethyl)benzyl)-2,3-dihydrobenzofuran-4-yl)-6-(hydroxymethyl)tetrahydro-2H-pyran-3,4,5-triol] | 1.14 nM
